Columns and labels:
caspase-3 = assay: DEVD-pNA cleavage activity (Caspase-3 Colorimetric Assay Kit); format: cell-based, human; details: Colo-205 lysates, 48 hrs treatment, vs drug-free control
Procedure: In addition, to further determine whether caspases participate in the propagation of apoptosis induced by 10-HCPT in Colo-205 cells, cell lysates from drug-treated cells were analyzed for the cleavage of the p-nitroaniline-tagged peptides N-Acetyl-Asp-Glu-Val-Aps-pNA (DEVD-pNA), which represent preferential substrates for caspase-3. Caspase activation leads to the release of pNA that can be monitored by absorbance measurements at 405 nm using a plate reader. Specifically, DEVD-pNA cleavage activity was measured using Caspase-3 Colorimetric Assay Kit (BioVision) according to the recommended protocols. 3×10^6 of 10-HCPT treated cells were harvested, resuspended in 50 μl of chilled cell lysis buffer and incubated on ice for 10 min before centrifugation (12,000 rpm for 3 min at 4° C.). The supernatant was collected and the total protein concentration of the supernatant was determined by Dc protein assay kit (Bio-Rad). Each assay reaction containing 100 μg of cell lysates, 50 μl of 2× reaction buffer supplemented with 10 mM DTT, and 5 μl of the 4 mM of DEVD-pNA (200 μM final concentration) was carried out at 37° C. for 1 hr. The formation of p-nitroanilide was detected at 405 nm in a microtiter plate reader.

Colo-205 cells [1] = assay: Cell cycle distribution by propidium iodide staining and flow cytometry; format: cell-based, human; details: various concentrations, 48 hrs
Procedure: We further investigated if the suppression of cell growth induced by 10-HCPT on Colo-205 was due to either cell cycle arrest or cell death. The Colo-205 cells were treated with various concentrations of 10-HCPT for 48 hrs and analyzed by propidium iodide staining and flow cytometry as described below.
After treatment with 10-HCPT, cells were trypsinized and resuspended in 70% ethanol. The cells were incubated on ice for at least 1 hr and resuspended in 1 mL of cell cycle assay buffer (0.38 mM sodium citrate, 0.5 mg/mL RNase A, and 0.01 mg/mL propidium iodide) at a concentration of 5×10^5 cells/mL. Samples were stored in the dark at 4° C. until cell cycle analysis, which was carried out by use of a flow cytometer and ModFit LT 2.0 software (Verity Software, Topsham, Me.).
A FACScan flow cytometer (Becton Dickinson, Bedford, Mass.) equipped with a 488-nm argon laser was used for analysis of cellular function by flow cytometry. Forward and side scatters were used to establish size gates and exclude cellular debris from the analysis. The excitation wavelength was set at 488 nm. The observation wavelength of 530 nm was chosen for green fluorescence and 585 nm for red fluorescence and the intensities of emitted fluorescence were collected on FL1 and FL2 channels, respectively. In each measurement, a minimum of 20,000 cells was analyzed. Data were acquired and analyzed using the Cell Quest software (Becton Dickinson). Relative change in the mean fluorescence intensity was calculated as the ratio between mean fluorescence intensity in the channel of the treated cells and that of the control.

[2] = cited from earlier work
histone H1 and H3 = details: murine hepatoma cells; cited from earlier work
[3] = Toxicity in xenograft-bearing nude mice (body weight, pathology); format: in vivo
Procedure: (§1) 10-HCPT was dissolved in propylene glycol and treatment began when the tumor size reached 3-5 mm. 10-HCPT was administered via p.o. once per two or four days at doses of 1-7.5 mg/kg (volume of injection: 0.1 mL/20 g of body weight), respectively. The control group received propylene glycol vehicle once per two days. Tumor size and body weight were monitored twice a week throughout the experiment. The tumor size was measured using a vernier caliper. Tumor volume (V) was calculated according to the formula: V (mm^3)=0.4AB^2, where A and B are the longest diameter and the shortest diameter, respectively. At the end of experiment, all mice were sacrificed by CO2 gas. Tumors, livers, kidneys, and lungs were collected, fixed, embedded and stained with hematoxylin and eosin for pathological analysis.

Colo-205 xenografts = assay: In vivo antiproliferation, Colo-205 xenografts in BALB/c-nu mice; details: for tumor volume at day 24: control 300.5±22.3
Procedure: We further examined whether 10-HCPT is effective in growth suppression in vivo after tumor formation. Colo-205 cells were transplanted into BALB/c-nu mice, and when the tumors were palpable (3-5 mm), the mice were treated either with vehicle control or 10-HCPT.
The in vivo experiment was carried out with ethical committee approval and met the standards required by the Guiding Principles in the Use of Animals in Toxicology, which were adopted by the Society of Toxicology in 1989. The BALB/c-nu mice were obtained from National Laboratory Animal Center of National Applied Research Laboratories (Taipei, Taiwan) and housed in a laminar flow room under sterilized conditions with the temperature being maintained at 25±2° C. and the light controlled at 12 h light and 12 h dark cycle. The Colo 205 cells were harvested and resuspended in serum free RPMI-1640 medium. Cells were adjusted to 1×10^7 cells/mL, and transplanted subcutaneously on the flank regions of the mice. Each experimental group included six to seven mice bearing tumors.
as §1

[4] = tested on: caspases (IETD-pNA and LEHD-pNA substrates); assay: IETD-pNA and LEHD-pNA cleavage in cell lysates; format: cell-based, human; details: Colo-205 cells
human Hep G2 cells = details: cited from earlier work
Colo-205 cells [5] = assay: DNA fragmentation assay; format: cell-based, human; details: various concentrations, 48 hrs, 1.5% agarose gel
Text: Because apoptosis always takes place as a consequence of a cell cycle block, it is possible that 10-HCPT is able to cause cell death through apoptosis pathway. To verify this possibility, we first performed DNA fragmentation assay since DNA fragmentation is one characteristic of apoptosis.
The DNA of Colo-205 cells treated with various concentrations of 10-HCPT for 48 hrs was extracted and analyzed by 1.5% native agarose gel electrophoresis.

Colo-205 cells [6] = assay: Viable cell number by trypan blue exclusion assay; format: cell-based, human; details: 5, 10, 15 or 20 nM, 24 to 120 hr, vs untreated cells
Procedure: To investigate the effect of 10-HCPT on the growth of Colo-205 cell line, the cells were treated with a series of dosages of 10-HCPT and harvested at different time points. The cell numbers were determined by trypan blue exclusion assay as described below.
Colo-205 cells (5×10^5) were seeded in 25T flasks overnight and then treated without (control) and with 5, 10, 15, or 20 nM of 10-HCPT, respectively. After treatment for 24 to 120 hr, cells were harvested by trypsin-EDTA and then centrifuged at 1500 rpm for 5 min at 4° C. The cell pellet was resuspended in culture medium containing 0.04% trypan blue and the viable cells were enumerated by a hemocytometer.

[7] = tested on: human colon cancer Colo-205 cells; assay: MTT assay of cell growth, Colo-205; format: cell-based; details: for concentration at which significant growth inhibition was observed: Colo-205, day 2 and day 3, MTT, vs vehicle controls; for concentration at which complete growth inhibition was observed: Colo-205, days 1-3, MTT
Procedure: (§2) Two human colon cancer cell lines, Colo-205 (ATCC accession No. CCL-222) and HT-29 (ATCC accession No. HTB-38), were used in this study. Cells were treated with 0.2, 0.76, 1.52, 7.62, 15.24, 22.87, 30.49, 38.11, 45.73 or 53.35 μM 10-HCPT or CPT-11 for 1-3 days, and the relative number of the viable cells was determined by MTT assay as described below.
(§3) Cells were seeded in a 24-well cell culture cluster (Costar, Cambridge, Mass.) at a density of 1×10^6 cells per mL and cultured overnight prior to drug treatment. After 10-HCPT or CPT-11 treatment for 3 days, the medium was discarded and replaced with an equal volume (0.5 mL) of fresh medium containing 0.456 mg/mL 3-[4,5-dimethylthiazol-2-yl]-2,5-diphenyl-tetrazolium bromide (MTT; Sigma Chemical Company) and incubated for 2 hours at 37° C. in the dark. The medium was discarded, and cells were then combined with […] dimethyl sulfoxide (Sigma Chemical Company) to dissolve the formazan produced. Cell viability was determined according to the calorimetric comparison by reading optical density (OD) values from a microplate reader (Spectra Max 250; Spectra Diode Laboratories, CA) at an absorption wavelength of 570 nm.

[8] = tested on: cell cycle regulatory proteins in Colo-205 cells; assay: Western blotting of cell cycle regulatory proteins; format: cell-based, human; details: Colo-205, 3 μM, 48 hr
Text: The progression of the cell cycle is promoted by various CDKs binding with their respective cyclin partners and inhibited by CDK inhibitors such as p21 and p27. In general, CDK2 in association with cyclin E regulates the G1/S transition, and CDK1 in concert with type-A and -B cyclins controls the G2/M transition. Both cell cycle inhibitory proteins p21 and p27 block cell cycle progression at the G1/S as well as the G2/M transitions of cell cycle. […] To confirm this speculation, we analyzed the expressions of several cell cycle regulatory proteins by means of Western blotting assay as described below.
Colo-205 cells were cultured in Dulbecco's modified Eagle Medium (DMEM) supplemented with 10% fetal bovine serum (FBS) at 37° C. in a 5% CO2 atmosphere. Cells were seeded in 6-well plate and incubated with 3 μM of 10-HCPT. After 48 hr, the treated cells were washed twice with phosphate-buffered saline (PBS), flash frozen in liquid nitrogen, and stored at −80° C. The harvested cells were lysed in ice-cold report lysis buffer (Promega). After cleaning the resulted lysates by centrifugation, protein in the clear lysate was quantified by Dc protein assay kit (Bio-Rad). 15 μg of lysate protein were resolved by 10% SDS-PAGE, transferred onto a polyvinylidene difluoride membrane (PVDF membrane, Amersham Biosciences), and immunoblotted with antibodies against followed cellular proteins: DNA topoisomerase I, p53, p27, phosphorylated p27 (Santa Cruz Biotechnology), cyclin E, CDK2 (BD Pharningen), PCNA, p21 (Upstate), and α-tubulin (Sigma). Protein content was visualized with BM Chemiluminescence Blotting Kit (Roche Molecular Biochemicals). The blots were exposed to X-ray film (Fuji) for various times.

[9] = tested on: human colon cancer HT-29 cells; assay: MTT assay of cell growth, HT-29; format: cell-based; details: HT-29, days 1-3, MTT
Procedure: as §2, §3

[10] = well known in the art; cited from earlier work
[11] = previous pharmacokinetic studies

## CC[C@@]1(O)C(=O)OCc2c1cc1n(c2=O)Cc2cc3cc(O)ccc3nc2-1 [10-HCPT, 10-hydroxy-camptothecin]
caspase-3
  absorbance with the DEVD-pNA substrate: clearly elevated
Colo-205 cells [1]
  cell populations in G0/G1 phase: decreasing
  cell populations in G2/M phase: induced dramatically the increasing
  population in sub G0/G1 phase: increasing population
Colo-205 cells [1]; vs untreated
  S phase of cell cycle: no significant differences
[2]; i.v.
  toxicity with i.v. administration: Dose-dependent toxicity was observed
[2]; [11]
  distribution half-life: short
  elimination half-life: prolonged
Histone H1 and H3
  effect on phosphorylation of histone H1 and H3: inhibitory effect
[3]; 7.5 mg/kg/2 days-treated group, end of study
  average body weight: slightly recovered
[3]; 1-7.5 mg/kg, p.o., once per two or four days, nude mice
  acute toxicity: no obvious acute toxicity
[3]; all treated groups except the 7.5 mg/kg/2 days-treated group
  body weight: No significant reduction in body weight
[3]; tissue slices stained with hematoxylin and eosin
  tissue damage in liver, lung and kidney: no tissue damage was observed
Colo-205 xenografts; 2.5 mg/kg/2 days p.o., P<0.01
  tumor volume at day 24: 85.9±12.3 mm^3
Colo-205 xenografts; 2.5 mg/kg/4 days p.o.
  tumor volume at day 24: 273.1±33.7 mm^3
Colo-205 xenografts; 5 mg/kg/2 days p.o., P<0.01
  tumor volume at day 24: 60.8±15.4 mm^3
Colo-205 xenografts; 5 mg/kg/4 days p.o., p<0.05
  tumor volume at day 24: 228.9±45.3 mm^3
Colo-205 xenografts; 7.5 mg/kg/2 days p.o., P<0.01
  tumor volume at day 24: 7.2±2.8 mm^3
Colo-205 xenografts; 7.5 mg/kg/4 days p.o., p<0.05
  tumor volume at day 24: 182.9±43.9 mm^3
Colo-205 xenografts; oral, 2.5-7.5 mg/kg/2 days, nude mouse xenografts
  tumor growth suppression: obviously observed
[4]
  caspase activation with IETD-pNA substrate: only stimulated little caspase activations
  caspase activation with LEHD-pNA substrate: only stimulated little caspase activations
Human Hep G2 cells
  effect on differentiation: differentiation inducing effect
Colo-205 cells [5]
  DNA ladders: DNA ladders were detected
Colo-205 cells [6]
  effect on cell number increase: suppression of cell number increasing in dose-dependent manner
[7]
  concentration at which significant growth inhibition was observed: 0.2 µM
  concentration at which complete growth inhibition was observed: 1 µM
[8]
  CDK2 expression: increasing expression
  PCNA protein level: no effect
  amount of p27: decreasing amount
  cdc25c expression: enhanced
  cyclin B1 expression: enhanced
  cyclin E expression: increasing expression
  p21 protein level: dramatically increased
[9]
  concentration at which complete growth inhibition was observed: 0.5 µM

## CC[C@@]1(O)C(=O)OCc2c1cc1n(c2=O)Cc2cc3ccccc3nc2-1 [CPT, Camptothecin]
[10]
  water-solubility: water-insoluble

## CC[C@@]1(O)C(=O)OCc2c1cc1n(c2=O)Cc2cc3c(CN(C)C)c(O)ccc3nc2-1 [topotecan]
[10]
  water-solubility: better water-solubility than CPT

## irinotecan [CPT-11]
[7]
  concentration at which significant growth inhibition was observed: 22.87 µM
  concentration at which complete growth inhibition was observed: 38.11 µM
[10]
  water-solubility: better water-solubility than CPT
[9]
  concentration at which complete growth inhibition was observed: 45.73 µM

From patent US20080039485A1, “LOW-DOSE-LONG-TERM PHARMACEUTICAL COMPOSITION COMPRISING CAMPTOTHECIN DERIVATIVES FOR THE TREATMENT OF CANCERS” (TARGETGEN BIOTECHNOLOGY CO., LTD., priority 2006, published 2008)
